# Experimental data as given in patent US12060347B2 (BRISTOL-MYERS SQUIBB COMPANY, priority 2016, dated 2024).
# Target: T1, human PAR4 (Homo sapiens, UniProt Q96RI0)
# T1 construct: expressed in transfected cells; host or cells: HEK293 PAR4 Clone 1.2A (BMS Arctic ID 383940)
# T1 sequence (Q96RI0 18-385): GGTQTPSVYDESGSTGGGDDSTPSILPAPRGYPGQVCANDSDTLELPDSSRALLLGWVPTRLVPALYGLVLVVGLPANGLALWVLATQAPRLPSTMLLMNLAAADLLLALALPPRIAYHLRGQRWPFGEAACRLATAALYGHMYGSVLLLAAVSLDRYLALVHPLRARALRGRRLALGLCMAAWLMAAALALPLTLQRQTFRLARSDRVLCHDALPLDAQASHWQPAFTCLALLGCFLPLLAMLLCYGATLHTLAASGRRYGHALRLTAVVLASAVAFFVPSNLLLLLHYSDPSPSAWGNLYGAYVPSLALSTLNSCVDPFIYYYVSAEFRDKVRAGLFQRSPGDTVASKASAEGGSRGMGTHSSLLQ
# Assay: PAR4 FLIPR assay: antagonism of agonist-peptide-induced calcium mobilization in PAR4-expressing HEK293 cells
# Format: cell-based
# Conditions: H-Ala-Phe(4-F)-[…]NH2-induced intracellular calcium mobilization, 11-point curves
row,IC50,Structure (SMILES)
1,2 nM,"COCc1cnc2c(-c3nc4c(C(O)c5cccnc5)cc(OC)cc4s3)cc(C)cc2n1 (stereo not shown) [Example 168, (6-methoxy-2-(2-(methoxymethyl)-7-methylquinoxalin-5-yl)benzo[d]thiazol-4-yl) (pyridin-3-yl)methanol]"
2,0.6 nM,"COCc1cnc2c(-c3nc4c(C(O)C(F)(F)F)cc(OC)cc4s3)cc(C)cc2n1 (stereo not shown) [Example 171, 2,2,2-trifluoro-1-(6-methoxy-2-(2-(methoxymethyl)-7-methylquinoxalin-5-yl)benzo[d]thiazol-4-yl)ethanol]"
3,1.7 nM,"COCc1cnc2c(-c3nc4c(C(O)c5ccncc5)cc(OC)cc4s3)cc(C)cc2n1 (stereo not shown) [Example 172, (6-methoxy-2-(2-(methoxymethyl)-7-methylquinoxalin-5-yl)benzo[d]thiazol-4-yl)(pyridin-4-yl)methanol]"
4,2.7 nM,"COCc1cnc2c(-c3nc4c(C(O)CC(F)(F)F)cc(OC)cc4s3)cc(C)cc2n1 (stereo not shown) [Example 173, 3,3,3-trifluoro-1-(6-methoxy-2-(2-(methoxymethyl)-7-methylquinoxalin-5-yl)benzo[d]thiazol-4-yl)propan-1-ol]"
5,3 nM,"COc1cc(C(O)C(F)(F)F)c2nc(-c3cc(C)cc4nc(OC)cnc34)sc2c1 (stereo not shown) [Example 174, 2,2,2-trifluoro-1-(6-methoxy-2-(2-methoxy-7-methylquinoxalin-5-yl)benzo[d]thiazol-4-yl)ethanol]"
6,23 nM,"COc1cnc2c(-c3cc4ccccc4o3)cc(C)cc2n1 [Example 175, 5-(benzofuran-2-yl)-2-methoxy-7-methylquinoxaline]"
7,980 nM,"COC(=O)c1cnc2c(-c3cc4ccccc4o3)cc(C)cc2n1 [Example 176, methyl 5-(benzofuran-2-yl)-7-methylquinoxaline-2-carboxylate]"
8,190 nM,"COc1cnc2c(-c3cc4ccccc4o3)cc(C)cc2c1 [Example 177, 8-(benzofuran-2-yl)-3-methoxy-6-methylquinoline]"
9,13 nM,"Cc1cc(-c2nc3c(s2)CCCC3)c2ncc(OC(F)F)nc2c1 [Example 178, 2-(2-(difluoromethoxy)-7-methylquinoxalin-5-yl)-4,5,6,7-tetrahydrobenzo[d]thiazole]"
10,18 nM,"COc1cnc2c(-c3nc4c(C)cc(OC)nc4s3)cc(C)cc2n1 [Example 179, 5-methoxy-2-(2-methoxy-7-methylquinoxalin-5-yl)-7-methylthiazolo[5,4-b]pyridine]"
11,2.7 nM,"COCc1cnc2c(-c3nc4cc(F)c(OC)nc4s3)cc(C)cc2n1 [Example 180, 6-fluoro-5-methoxy-2-(2-(methoxymethyl)-7-methylquinoxalin-5-yl)thiazolo[5,4-b] pyridine]"
12,1.2 nM,"COCc1cnc2c(-c3nc4c(C)cc(OC)nc4s3)cc(C)cc2n1 [Example 181, 5-methoxy-2-(2-(methoxymethyl)-7-methylquinoxalin-5-yl)-7-methylthiazolo[5,4-b] pyridine]"
13,22 nM,"COc1cnc2c(-c3nc4cc(F)c(OC)nc4s3)cc(C)cc2n1 [Example 182, 6-fluoro-5-methoxy-2-(2-methoxy-7-methylquinoxalin-5-yl)thiazolo[5,4-b]pyridine]"
14,0.6 nM,"COCc1cnc2c(-c3nc4c(C)cc(OC)cc4s3)cc(C)cc2n1 [Example 183, 6-methoxy-2-(2-(methoxymethyl)-7-methylquinoxalin-5-yl)-4-methylbenzo[d]thiazole]"
15,2300 nM,"COC(C)c1cnc2c(-c3cc4ccccc4o3)cc(C)cc2n1 (stereo not shown) [Example 184, 5-(benzofuran-2-yl)-2-(1-methoxyethyl)-7-methylquinoxaline]"
16,6.5 nM,"COCc1cnc2c(-c3nc4c(C)cc(OC)cc4s3)cc(C)cc2c1 [Example 185, 6-methoxy-2-(3-(methoxymethyl)-6-methylquinolin-8-yl)-4-methylbenzo[d]thiazole]"
17,17 nM,"COc1cc(C)c2nc(-c3cc(C)cc4nc(C(F)(F)OC)cnc34)sc2c1 [Example 186, 2-(2-(difluoro(methoxy)methyl)-7-methylquinoxalin-5-yl)-6-methoxy-4-methylbenzo[d]thiazole]"
18,390 nM,"COc1cc(C)c2nc(-c3cc(C)cc4nc(COc5ccccc5)cnc34)sc2c1 [Example 187, 6-methoxy-4-methyl-2-(7-methyl-2-(phenoxymethyl)quinoxalin-5-yl)benzo[d]thiazole]"
19,580 nM,"COc1cc(C)c2nc(-c3cc(C)cc4nc(CN(C)C)cnc34)sc2c1 [Example 188, 1-(5-(6-methoxy-4-methylbenzo[d]thiazol-2-yl)-7-methylquinoxalin-2-yl)-N,N-dimethylmethanamine]"

row,IC50,Structure (SMILES)
1,140 nM,"CCOCc1cnc2c(-c3nc4c(C)cc(OC)cc4s3)cc(C)cc2n1 [Example 189, 2-(2-(ethoxymethyl)-7-methylquinoxalin-5-yl)-6-methoxy-4-methylbenzo[d]thiazole]"
2,1700 nM,"COCc1cnc2c(-c3nc4c(C)cc(OC)cc4s3)cc(C)cc2c1OC [Example 190, 6-methoxy-2-(4-methoxy-3-(methoxymethyl)-6-methylquinolin-8-yl)-4-methylbenzo[d]thiazole]"
3,6.4 nM,"COCc1cnc2c(-c3nc4c(C)cc(Cl)nc4s3)cc(C)cc2n1 [Example 191, 5-chloro-2-(2-(methoxymethyl)-7-methylquinoxalin-5-yl)-7-methylthiazolo[5,4-b] pyridine]"
4,2.8 nM,"COCc1cnc2c(-c3nc4c(CO)cc(OC)nc4s3)cc(C)cc2n1 [Example 192, (5-methoxy-2-(2-(methoxymethyl)-7-methylquinoxalin-5-yl)thiazolo[5,4-b]pyridin-7-yl) methanol]"
5,1.2 nM,"COCc1cnc2c(-c3nc4c(C)cc(OCCNS(=O)(=O)c5ccc(F)cc5)nc4s3)cc(C)cc2n1 [Example 193, 4-fluoro-N-(2-((2-(2-(methoxymethyl)-7-methylquinoxalin-5-yl)-7-methylthiazolo[5,4-b]pyridin-5-yl)oxy)ethyl)benzenesulfonamide]"
6,2.5 nM,"COc1cnc2c(-c3nc4c(C)cc(OCCNS(=O)(=O)c5ccc(F)cc5)nc4s3)cc(C)cc2n1 [Example 194, 4-fluoro-N-(2-((2-(2-methoxy-7-methylquinoxalin-5-yl)-7-methylthiazolo[5,4-b]pyridin-5-yl)oxy)ethyl)benzenesulfonamide]"
7,32 nM,"COCc1cnc2c(-c3cc4ccccc4o3)cc(C)cc2n1 [Example 195, 5-(benzofuran-2-yl)-2-(methoxymethyl)-7-methylquinoxaline]"
8,2.3 nM,"COc1cnc2c(-c3nc4c(C)cc(OCCOC(=O)Nc5cccnc5)nc4s3)cc(C)cc2n1 [Example 196, 2-((2-(2-methoxy-7-methylquinoxalin-5-yl)-7-methylthiazolo[5,4-b]pyridin-5-yl)oxy)ethyl pyridin-3-ylcarbamate]"
9,1.3 nM,"COc1cnc2c(-c3nc4c(C)cc(OCCOC(=O)Nc5ccc(C#N)nc5)nc4s3)cc(C)cc2n1 [Example 197, 2-((2-(2-methoxy-7-methylquinoxalin-5-yl)-7-methylthiazolo[5,4-b]pyridin-5-yl)oxy)ethyl (6-cyanopyridin-3-yl)carbamate]"
10,0.6 nM,"COc1cnc2c(-c3nc4cc(F)c(OCCOC(=O)Nc5ccc(C#N)nc5)nc4s3)cc(C)cc2n1 [Example 198, 2-((6-fluoro-2-(2-methoxy-7-methylquinoxalin-5-yl)thiazolo[5,4-b]pyridin-5-yl)oxy)ethyl (6-cyanopyridin-3-yl)carbamate]"
11,2.5 nM,"COc1cnc2c(-c3nc4c(C)cc(OCCNS(=O)(=O)c5ccc(F)cc5)cc4s3)cc(Cl)cc2n1 [Example 199, N-(2-((2-(7-chloro-2-methoxyquinoxalin-5-yl)-4-methylbenzo[d]thiazol-6-yl)oxy)ethyl)-4-fluorobenzenesulfonamide]"
12,1.6 nM,"COCc1cnc2c(-c3nc4c(C)cc(OCCNS(=O)(=O)c5ccc(F)cc5)cc4s3)cc(Cl)cc2n1 [Example 200, N-(2-((2-(7-chloro-2-(methoxymethyl)quinoxalin-5-yl)-4-methylbenzo[d]thiazol-6-yl)oxy)ethyl)-4-fluorobenzenesulfonamide]"
13,1.3 nM,"COCc1cnc2c(-c3nc4ccc(OC)cc4s3)cc(Cl)cc2n1 [Example 201, 2-(7-chloro-2-(methoxymethyl)quinoxalin-5-yl)-6-methoxybenzo[d]thiazole]"
14,0.9 nM,"COCc1cnc2c(-c3nc4ccc(OC)cc4s3)cc(Cl)cc2n1 [Example 202, 2-(7-chloro-2-(methoxymethyl)quinoxalin-5-yl)-6-methoxybenzo[d]thiazole]"
15,4.1 nM,"COCc1cnc2c(-c3nc4c(C)cc(OC)cc4s3)cc(OC(F)(F)F)cc2n1 [Example 203, 6-methoxy-2-(2-(methoxymethyl)-7-(trifluoromethoxy)quinoxalin-5-yl)-4-methylbenzo[d] thiazole]"
16,3.1 nM,"COCc1cnc2c(-c3nc4c(C)cc(OC)cc4s3)cc(C(=O)OC)cc2n1 [Example 204, methyl 8-(6-methoxy-4-methylbenzo[d]thiazol-2-yl)-3-(methoxymethyl) quinoxaline-6-carboxylate]"
17,51 nM,"COCc1cnc2c(-c3nc4c(C)cc(OCCNS(=O)(=O)c5ccc(F)cc5)cc4s3)cc(C(=O)OC)cc2n1 [Example 205, methyl 8-(6-(2-(4-fluorophenylsulfonamido)ethoxy)-4-methylbenzo[d]thiazol-2-yl)-3-(methoxymethyl)quinoxaline-6-carboxylate]"
18,0.7 nM,"COCc1cnc2c(-c3nc4c(C)cc(OC)cc4s3)cc(F)cc2n1 [Example 206, 2-(7-fluoro-2-(methoxymethyl)quinoxalin-5-yl)-6-methoxy-4-methylbenzo[d]thiazole]"
